Source: patent publication US9493432B2, “Cyclopentylbenzamide derivatives and their use for the treatment of psychotic and cognitive disorders” (Takeda Pharmaceutical Company Limited, priority 2013, dated 2016)

Experiments:
[1] = target: human orexin receptor 1 (Homo sapiens (Human), UniProt O43613); test: Orexin antagonist activity, intracellular calcium FLIPR assay (orexin receptor 1); type: cell-based; details: RBL-2H3 cells stably expressing human orexin receptor 1; Ca2+ dye FLIPR; compound 15 minutes before orexin-A at approximately 80% maximal response; read-out: Human Orexin1R IC50
human orexin receptor 1, sequence (O43613 whole entry): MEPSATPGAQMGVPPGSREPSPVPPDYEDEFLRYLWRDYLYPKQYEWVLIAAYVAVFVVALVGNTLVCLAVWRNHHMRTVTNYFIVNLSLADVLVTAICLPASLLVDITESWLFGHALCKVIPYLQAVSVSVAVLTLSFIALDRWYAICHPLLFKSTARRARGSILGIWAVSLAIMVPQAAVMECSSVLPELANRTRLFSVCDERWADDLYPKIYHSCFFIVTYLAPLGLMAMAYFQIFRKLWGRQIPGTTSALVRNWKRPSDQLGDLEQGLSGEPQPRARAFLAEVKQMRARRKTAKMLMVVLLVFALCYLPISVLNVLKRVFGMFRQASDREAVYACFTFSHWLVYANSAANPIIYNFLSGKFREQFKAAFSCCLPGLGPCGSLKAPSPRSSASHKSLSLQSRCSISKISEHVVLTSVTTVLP
Method in brief: (§1)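 RBL-2H3 cells stably expressing human OX1 or OX2 were loaded with Calcium 5 dye for 1 h at 37 °C. Compounds were added 15 min before orexin-A at a concentration giving ~80% maximal response, and Ca2+ fluorescence was read by FLIPR.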

[2] = target: human orexin receptor 2 (Homo sapiens (Human), UniProt O43614); test: Orexin antagonist activity, intracellular calcium FLIPR assay (orexin receptor 2); type: cell-based; details: RBL-2H3 cells stably expressing human orexin receptor 2; Ca2+ dye FLIPR; compound 15 minutes before orexin-A at approximately 80% maximal response; read-out: Human Orexin2R IC50
human orexin receptor 2, sequence (O43614 whole entry): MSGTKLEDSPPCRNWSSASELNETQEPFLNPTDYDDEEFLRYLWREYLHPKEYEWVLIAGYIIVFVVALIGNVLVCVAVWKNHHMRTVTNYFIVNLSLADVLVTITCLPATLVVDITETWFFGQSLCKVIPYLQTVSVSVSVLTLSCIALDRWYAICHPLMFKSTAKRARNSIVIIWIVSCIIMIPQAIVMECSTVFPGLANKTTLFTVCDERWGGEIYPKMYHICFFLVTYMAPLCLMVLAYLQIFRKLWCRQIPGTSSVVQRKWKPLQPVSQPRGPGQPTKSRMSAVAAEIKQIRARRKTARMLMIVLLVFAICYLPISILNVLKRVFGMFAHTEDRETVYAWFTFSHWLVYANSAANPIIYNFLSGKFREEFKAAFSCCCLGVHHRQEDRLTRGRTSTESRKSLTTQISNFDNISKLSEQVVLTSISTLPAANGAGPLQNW
Method in brief: as §1

Row | IC50 [1] [µM] | IC50 [2] [µM] | Compound
1 | 0.001 | 1.2 | Cc1noc(-c2ccccc2C(=O)N(C)[C@H]2CCC[C@@H]2Nc2nc3ccc(F)cc3s2)n1 [Example 83, N-[(1S,2S)-2-[(6-Fluoro-1,3-benzothiazol-2-yl)amino]cyclopentyl]-N-methyl-2-(3-methyl-1,2,4-oxadiazol-5-yl)benzamide]
2 | 0.045 | > 10 | COc1cccc(OC)c1C(=O)N[C@H]1CCC[C@@H]1Nc1nc2cc(F)ccc2s1 [Example 84, N-[(1S,2S)-2-[(5-Fluoro-1,3-benzothiazol-2-yl)amino]cyclopentyl]-2,6-dimethoxybenzamide]
3 | 0.023 | > 10 | COc1cccc(OC)c1C(=O)N[C@H]1CCC[C@@H]1Nc1nc2cc(F)ccc2o1 [Example 85, N-[(1S,2S)-2-[(5-Fluoro-1,3-benzoxazol-2-yl)amino]cyclopentyl]-2,6-dimethoxybenzamide]
4 | 0.15 | > 10 | O=C(N[C@H]1CCC[C@@H]1Nc1nc2ccccc2o1)c1ccccc1-n1nccn1 [Example 86, N-[(1S,2S)-2-[(1,3-Benzoxazol-2-yl)amino]cyclopentyl]-2-(2H-1,2,3-triazol-2-yl)benzamide]
5 | 0.021 | > 10 | O=C(N[C@H]1CCC[C@@H]1Nc1nc2ccc(F)cc2o1)c1ccccc1-n1nccn1 [Example 87, N-[(1S,2S)-2-[(6-Fluoro-1,3-benzoxazol-2-yl)amino]cyclopentyl]-2-(2H-1,2,3-triazol-2-yl)benzamide]
6 | 0.021 | 4.2 | O=C(N[C@H]1CCC[C@@H]1Nc1nc2cc(F)ccc2o1)c1ccccc1-n1nccn1 [Example 88, N-[(1S,2S)-2-[(5-Fluoro-1,3-benzoxazol-2-yl)amino]cyclopentyl]-2-(2H-1,2,3-triazol-2-yl)benzamide]
7 | 0.027 | 5.4 | O=C(N[C@H]1CCC[C@@H]1Nc1nc2cc(Cl)ccc2s1)c1ccccc1-n1nccn1 [Example 89, N-[(1S,2S)-2-[(5-Chloro-1,3-benzothiazol-2-yl)amino]cyclopentyl]-2-(2H-1,2,3-triazol-2-yl)benzamide]
8 | 0.016 | > 10 | O=C(N[C@H]1CCC[C@@H]1Nc1nc2ccccc2s1)c1ccccc1-n1nccn1 [Example 90, N-[(1S,2S)-2-[(1,3-Benzothiazol-2-yl)amino]cyclopentyl]-2-(2H-1,2,3-triazol-2-yl)benzamide]
9 | 0.014 | 8.6 | O=C(N[C@H]1CCC[C@@H]1Nc1nc2cc(F)ccc2s1)c1ccccc1-n1nccn1 [Example 92, N-[(1S,2S)-2-[(5-Fluoro-1,3-benzothiazol-2-yl)amino]cyclopentyl]-2-(2H-1,2,3-triazol-2-yl)benzamide]
10 | 0.014 | 6.2 | O=C(N[C@H]1CCC[C@@H]1Nc1nc2c(F)cc(F)cc2s1)c1ccccc1-n1nccn1 [Example 93, N-[(1S,2S)-2-[(4,6-Difluoro-1,3-benzothiazol-2-yl)amino]cyclopentyl]-2-(2H-1,2,3-triazol-2-yl)benzamide]
11 | 0.03 | > 10 | O=C(N[C@H]1CCC[C@@H]1Nc1nc2c(F)cccc2s1)c1ccccc1-n1nccn1 [Example 94, N-[(1S,2S)-2-[(4-Fluoro-1,3-benzothiazol-2-yl)amino]cyclopentyl]-2-(2H-1,2,3-triazol-2-yl)benzamide]
12 | 0.041 | > 10 | O=C(N[C@H]1CCC[C@@H]1Nc1nc2cccnc2s1)c1ccccc1-n1nccn1 [Example 95, N-[(1S,2S)-2-({[1,3]Thiazolo[5,4-b]pyridin-2-yl}amino)cyclopentyl]-2-(2H-1,2,3-triazol-2-yl)benzamide]
13 | 0.48 | > 10 | O=C(N[C@H]1CCC[C@@H]1Nc1nc2c(Cl)cncc2s1)c1ccccc1-n1nccn1 [Example 96, N-[(1S,2S)-2-({7-Chloro-[1,3]thiazolo[5,4-c]pyridin-2-yl}amino)cyclopentyl]-2-(2H-1,2,3-triazol-2-yl)benzamide]
14 | 0.31 | 2.1 | COc1cccc(OC)c1C(=O)NC1CCCC1Cc1ccc2ccccc2n1 (centres unmarked) [Example 98, 2,6-Dimethoxy-N-[2-(quinolin-2-ylmethyl)cyclopentyl]benzamide]
15 | 0.007 | 0.06 | CC1(Nc2nc3ccc(F)cc3s2)CCCC1NC(=O)c1ccccc1-n1nccn1 (centres unmarked) [Example 107, N-{2-[(6-Fluoro-1,3-benzothiazol-2-yl)amino]-2-methylcyclopentyl}-2-(2H-1,2,3-triazol-2-yl)benzamide]
16 | 0.013 | 0.186 | CC1(Nc2nc3ccc(Cl)cc3s2)CCCC1NC(=O)c1ccccc1-n1nccn1 (centres unmarked) [Example 108, N-{2-[(6-Chloro-1,3-benzothiazol-2-yl)amino]-2-methylcyclopentyl}-2-(2H-1,2,3-triazol-2-yl)benzamide]
